The subject of test [1] is PDL-1 and/or PDL-2 signaling. Nature of the test: Luciferase assay of dipeptides, Table 1. It counts as cell-based.
In another test the target is PD-1. Briefly: Binding affinity (KD) of dipeptides, Table 1.

We go through 36 molecules from patent US12098216B2, “Modulators of programmed death-ligand-1 and/or programmed death-ligand-2” (Southern Research Institute, priority 2020, dated 2024).

Square brackets hold non-standard residues; d marks the D form. Peptide text beside a SMILES is read from it. * marks the point of attachment. dPhe(4-CH2NH2) = NCc1ccc(C[C@@H](N)C(=O)O)cc1; dOrn = NCCC[C@@H](N)C(=O)O; Orn = NCCC[C@H](N)C(=O)O; Ac5c = NC1(C(=O)O)CCCC1; PhAc = O=C(Cc1ccccc1)*; Ac3c = NC1(C(=O)O)CC1; Aib = CC(C)(N)C(=O)O

The term EC50 denotes the concentration that produces a half-maximal response. A high value points to a need for much substance. Consider `NCCC[C@@H](NC(=O)Cc1ccccc1)C(=O)NC1(C(N)=O)CC1` [Compound 14] (PhAc-[dOrn]-[Ac3c]-NH2), for which the EC50 in test [1] is 0.11 µM. As to `CC(C)(NC(=O)[C@@H](CCCCN)NC(=O)Cc1ccccc1)C(N)=O` [Compound 8] (PhAc-[dK]-[Aib]-NH2), the EC50 in test [1] was 1.37 µM. On the same count and under the same terms, for `CC(C)(NC(=O)[C@@H](CCCN)NC(=O)C1(c2ccccc2)CC1)C(N)=O` [Compound 22] the value was 2.05 µM; for `CN(C)CCC[C@@H](NC(=O)Cc1ccc(F)cc1)C(=O)NC(C)(C)C(N)=O` [Compound 37], 23.8 µM. Regarding `CC(C)(NC(=O)[C@@H](CCCN)NC(=O)C(C)(C)c1ccccc1)C(N)=O` [Compound 12], the “EC50 (μM) Luciferase” value in test [1] was “Inactive”. In test [1], `Cn1cc(C(=O)N[C@H](CCCN)C(=O)NC(C)(C)C(N)=O)c2ccccc21` [Compound 13] had an EC50 of 1.28 µM. The same measure, in the same setting: for `CC(C)(NC(=O)[C@@H](CCCN)NC(=O)Cc1ccc(F)cc1Cl)C(N)=O` [Compound 27] the value was 10.2 µM; for `CC(C)(NC(=O)[C@@H](CCCN)NC(=O)Cc1ccc(OC(F)(F)F)cc1)C(N)=O` [Compound 6], 0.09 µM.

Molecule `CC(C)(NC(=O)[C@@H](CCCN)NC(=O)Cc1ccc(F)c(F)c1)C(N)=O` [Compound 28] gave an EC50 in test [1] of 2 µM. As to `CC(C)(NC(=O)[C@@H](CCCN)NC(=O)C1(c2ccc(F)cc2)CC1)C(N)=O` [Compound 25], in test [1], a half-maximal response (EC50) required 5.03 µM. Regarding `CC(C)(NC(=O)[C@@H](Cc1ccc(CN)cc1)NC(=O)Cc1ccccc1)C(N)=O` [Compound 23] (PhAc-[dPhe(4-CH2NH2)]-[Aib]-NH2), a half-maximal response in test [1] (EC50) required 17.7 µM. Besides, the KD entry on PD-1 is listed as “No Binding”. For `CC(C)(NC(=O)[C@@H](CCCN)NC(=O)Cc1cc(F)c(F)c(F)c1)C(N)=O` [Compound 32], in that order: 28.3 µM and “No Binding”.

As for `CC(C)(NC(=O)[C@@H](CCCN)NC(=O)Cc1nc2ccccc2o1)C(N)=O` [Compound 38], the EC50 in test [1] was 19.2 µM. Same read-out and setting: for `CC(C)(NC(=O)[C@@H](CCCN)NC(=O)Cc1c(F)cccc1F)C(N)=O` [Compound 31] the value was 0.596 µM; for `Cc1c[nH]c(=O)c(NC(=O)[C@@H](CCCN)NC(=O)Cc2ccc(F)cc2)c1` [Compound 35], 0.59 µM. On the same count and under the same terms, for `CC(C)(NC(=O)[C@H](CCCN)NC(=O)Cc1ccc(C(F)(F)F)cc1)C(N)=O` [Compound 42] the value was 12.1 µM; for `CC(C)(NC(=O)[C@@H](CCCN)NC(=O)Cc1ccc(C(F)(F)F)cc1)C(N)=O` [Compound 3], 0.01 µM; for `CC(C)(NC(=O)[C@H](CCCN)NC(=O)Cc1ccccc1)C(N)=O` [Compound 2] (PhAc-[Orn]-[Aib]-NH2), 7.9 µM. On the same count and under the same terms, in the case of `CC(C)(NC(=O)[C@@H](CCCN)NC(=O)Cc1c(F)cc(F)cc1F)C(N)=O` [Compound 33] it was 0.06 µM. In turn, `CC(C)(NC(=O)[C@@H](CCCN)NC(=O)Cc1ccncc1)C(N)=O` [Compound 34] displayed an EC50 in test [1] of 3.48 µM.

On to `CC(C)(NC(=O)[C@@H](CCCN)NC(=O)Cc1ccc(F)cc1F)C(N)=O` [Compound 29], for which the EC50 in test [1] was found to be 2.58 µM. On to `NCCC[C@@H](NC(=O)Cc1ccccc1)C(=O)NC1(C(N)=O)CCCC1` [Compound 7] (PhAc-[dOrn]-[Ac5c]-NH2), for which, in test [1], the midpoint of the response, the EC50, lay at 0.28 µM. The same measure, in the same setting: in the case of `CC(C)(NC(=O)[C@@H](CCCN)NC(=O)Cc1cccc(F)c1)C(N)=O` [Compound 11] it was 1.28 µM; in that of `CC(C)(NC(=O)[C@@H](Cc1ccc(CN)cc1)NC(=O)Cc1ccc(F)cc1)C(N)=O` [Compound 24], 0.714 µM; in that of `CC(C)(NC(=O)[C@@H](CCCN)NC(=O)C(C)(C)c1ccc(F)cc1)C(N)=O` [Compound 26], 3.79 µM. Still for that read-out and setting: for `COc1ccc(CC(=O)N[C@H](CCCN)C(=O)NC(C)(C)C(N)=O)cc1` [Compound 5] the value was 0.32 µM. For the molecule `CC(C)(NC(=O)[C@@H](CCCN)NC(=O)Cc1ccc(Cl)cc1)C(N)=O` [Compound 17], the midpoint of the response in test [1], the EC50, lay at 10.3 µM. The KD entry on PD-1 is “No Binding”. Regarding `CC(C)(NC(=O)[C@@H](CCCN)NC(=O)Cc1ccc(F)cc1)C(N)=O` [Compound 4], the EC50 in test [1] was found to be 0.47 µM.

`NCCC[C@@H](NC(=O)Cc1ccc(F)cc1)C(=O)NC1(C(N)=O)CC1` [Compound 15] yielded an EC50 in test [1] of 3.32 µM.

For `CC(C)(NC(=O)[C@@H](CCCN)NC(=O)Cc1nc2ccccc2s1)C(N)=O` [Compound 40], in test [1], the EC50 was found to be 0.07 µM. The same measure, in the same setting: for `CCCC[C@@H](NC(=O)Cc1ccc(F)cc1)C(=O)NC(C)(C)C(N)=O` [Compound 39] the value was 10.3 µM. As to `Cc1c[nH]c(=O)c(NC(=O)[C@@H](CCCN)NC(=O)Cc2ccccc2)c1` [Compound 36], in test [1], the EC50 is 1.69 µM. In addition, the KD entry at PD-1 was “No Binding”. For `Cc1ccc(CC(=O)N[C@H](CCCN)C(=O)NC(C)(C)C(N)=O)cc1` [Compound 10], in test [1], the “EC50 (μM) Luciferase” value was “Inactive”. Take `CC(C)(NC(=O)[C@@H](CCCN)NC(=O)Cc1ccccc1F)C(N)=O` [Compound 9]: in test [1], the EC50 is 0.05 µM. Still for that read-out and setting: in the case of `CC(C)(NC(=O)[C@@H](CCCN)NC(=O)Cc1ccccc1)C(N)=O` [Compound 1, (R)-5-amino-N-(1-amino-2-methyl-1-oxopropan-2-yl)-2-(2-phenylacetamido)pentanamide] (PhAc-[dOrn]-[Aib]-NH2) it was 18 µM; in that of `CC(C)(NC(=O)[C@@H](CCCN)NC(=O)Cc1cc(F)cc(F)c1)C(N)=O` [Compound 30], 2.1 µM.
